This is an account of results in US5306720A, “Piperidine derivative and pharmaceutical composition” (priority 1985, dated 1994).

Structures can show the parent of a compound that is named as a salt.

Broadly, the IC50 is the concentration that gives 50% inhibition.

For one data set, the target named is T1, acetylcholinesterase (Mus musculus, UniProt P21836).
T1 construct: Using a mouse brain homogenate as a source of acetylcholinesterase; from tissue; host or cells: mouse brain homogenate
T1 sequence (P21836 32-614): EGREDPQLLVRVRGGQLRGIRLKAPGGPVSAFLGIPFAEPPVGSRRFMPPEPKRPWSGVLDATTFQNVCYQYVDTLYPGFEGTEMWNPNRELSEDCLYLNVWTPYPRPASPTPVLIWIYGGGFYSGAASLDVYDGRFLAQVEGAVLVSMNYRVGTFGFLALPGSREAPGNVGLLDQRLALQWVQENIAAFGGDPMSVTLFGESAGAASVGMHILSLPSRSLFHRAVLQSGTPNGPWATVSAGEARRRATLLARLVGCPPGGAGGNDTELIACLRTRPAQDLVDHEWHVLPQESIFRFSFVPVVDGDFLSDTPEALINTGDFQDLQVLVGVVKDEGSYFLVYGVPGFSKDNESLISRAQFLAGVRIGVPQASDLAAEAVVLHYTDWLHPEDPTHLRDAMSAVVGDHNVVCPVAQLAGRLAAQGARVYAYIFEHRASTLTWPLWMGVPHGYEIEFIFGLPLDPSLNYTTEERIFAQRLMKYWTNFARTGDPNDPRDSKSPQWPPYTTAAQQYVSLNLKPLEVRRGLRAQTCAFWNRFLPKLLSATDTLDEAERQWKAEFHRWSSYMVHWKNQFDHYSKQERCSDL
Kind of data set: biochemical. The class given is biochemical. The conditions noted are these: mouse brain homogenate; thiocholine method, absorbance at 412 nm; read-out: AChE inhibitory activity IC50.
Protocol: Acetylcholinesterase Inhibitory Action using Mouse Brain Homogenate
Using a mouse brain homogenate as a source of acetylcholinesterase, the esterase activity was measured by a thiocholine method. Acetylcholine as a substrate, the compound of the invention as a substance to test and 5,5'-dithio-bis(2-nitrobenzoic acid), called also DTNB, were added to the mouse brain homogenate. After incubation, thiocholine produced was reacted with DTNB to form a yellow product.
Turning to `CN(CCC1CCN(Cc2ccccc2)CC1)C(=O)c1ccc(S(=O)(=O)Cc2ccccc2)cc1` [Example 4, N-methyl-N-[4'-(1'-benzylpiperidine)ethyl]-4-benzylsulfonylbenzamide, hydrochloride], the IC50 is 0.6 nM.
Turning to `CN(CCC1CCN(Cc2ccccc2)CC1)C(=O)c1ccncc1` [Example 5, N-methyl-N-[4'-(1'-benzylpiperidyl)ethyl] isonicotinic acid amide hydrochloride], the IC50 was 88 nM.
As to `CN(CCC1CCN(Cc2ccccc2)CC1)C(=O)c1ccc(S(=O)(=O)C2CCCC2)cc1` [Example 6, N-methyl-N-[4'-(1'-benzylpiperidine)ethyl]-4-cyclopentylsulfonylbenzamide.hydrochloride], the IC50 was 21 nM.
On to `O=C1c2ccc([N+](=O)[O-])cc2C(=O)N1CCC1CCN(Cc2ccccc2)CC1` [Example 7, N-[2-(N'-benzylpiperidino-4)ethyl]-4-nitrophthalimide.hydrochloride], for which the half-maximal inhibitory concentration (IC50) was 14 nM.
As for `O=C1c2nccnc2C(=O)N1CCC1CCN(Cc2ccccc2)CC1` [Example 8, N-[2-(N'-benzylpiperidino-4)ethyl]-2,3-pyrazinedicarboxylic acid imide], the concentration for half-maximal inhibition (IC50) amounted to 80 nM.
`O=C1c2cccc3cccc(c23)C(=O)N1CCC1CCN(Cc2ccccc2)CC1` [Example 9, N-[2-(N'-benzylpiperidino-4)ethyl]-1,8-naphthalimide]: the IC50 is 5.5 nM.
Same read-out and setting: then `O=C(NCCC1CCN(Cc2ccccc2)CC1)c1ccc2c(c1)C(=O)c1ccccc1C2=O` [Example 25], with 4.5 nM; and `O=C(NCCC1CCN(Cc2ccccc2)CC1)c1ccc(C(=O)NCc2ccccc2)cc1` [Example 26], with 9 nM.
For the molecule `CN(CCC1CCN(Cc2ccccc2)CC1)C(=O)c1ccc(-c2ccccc2)cc1` [Example 32], the concentration for half-maximal inhibition (IC50) turned out to be 4.3 nM.
As for `CN(CCC1CCN(Cc2ccc(O)cc2)CC1)C(=O)c1ccc(S(=O)(=O)Cc2ccccc2)cc1` [Example 41], the IC50 came out at 0.8 nM.
On to `O=C1c2cccc([N+](=O)[O-])c2C(=O)N1CCC1CCN(Cc2ccccc2)CC1` [Example 47], for which the IC50 came to 9 nM.
On the same count and under the same terms, the value for `CC(=O)Nc1ccc2c(c1)C(=O)N(CCC1CCN(Cc3ccccc3)CC1)C2=O` [Example 50] was 2.8 nM; that for `O=C(NCc1ccccc1)c1ccc2c(c1)C(=O)N(CCC1CCN(Cc3ccccc3)CC1)C2=O` [Example 51] was 2.2 nM; that for `CCN(CC)C(=O)c1ccc2c(c1)C(=O)N(CCC1CCN(Cc3ccccc3)CC1)C2=O` [Example 52] was 1.5 nM.
Same read-out and setting: the value for `O=C(c1ccccc1)c1ccc2c(c1)C(=O)N(CCC1CCN(Cc3ccccc3)CC1)C2=O` [Example 53] was 2.4 nM; that for `COc1cc2c(cc1Cl)C(=O)N(CCC1CCN(Cc3ccccc3)CC1)C2=O` [Example 56] was 3.3 nM; that for `O=C1c2cc3ccccc3cc2C(=O)N1CCC1CCN(Cc2ccccc2)CC1` [Example 57] was 1.2 nM.
As for `O=C1c2cccnc2C(=O)N1CCC1CCN(Cc2ccccc2)CC1` [Example 58], the concentration for half-maximal inhibition (IC50) is 13 nM.
As to `O=c1[nH]c2cc(Cl)ccc2c(=O)n1CCC1CCN(Cc2ccccc2)CC1` [Example 68], the IC50 was 4.5 nM.
On to `O=C(NCCC1CCN(Cc2ccccc2)CC1)c1ccc([N+](=O)[O-])cc1` [Example 71], for which the 50% inhibitory concentration (IC50) was found to be 55 nM.
Same read-out and setting: the value for `O=C(NCCC1CCN(Cc2ccccc2)CC1)c1ccc(SCc2ccccc2)cc1` [Example 88] was 49 nM.
Regarding `O=C(Nc1ccc2c(c1)C(=O)N(CCC1CCN(Cc3ccccc3)CC1)C2=O)c1ccccc1` [Example 111], the 50% inhibitory concentration (IC50) came to 0.88 nM.
Regarding `O=c1c2cc3c(=O)n(CCC4CCN(Cc5ccccc5)CC4)c(=O)c3cc2c(=O)n1CCC1CCN(Cc2ccccc2)CC1` [Example 112], the IC50 amounted to 0.15 nM.
Take `Cc1ccc2[nH]c(=O)n(CCC3CCN(Cc4ccccc4)CC3)c(=O)c2c1` [Example 113]: the concentration for half-maximal inhibition (IC50) came to 4.7 nM.
Turning to `O=C(NCCC1CCN(Cc2ccccc2)CC1)c1ccc(SCCl)cc1` [Example 115], the half-maximal inhibitory concentration (IC50) came to 6.7 nM.
Turning to `O=C1c2ccc(Cl)cc2C(=O)N1CCC1CCN(Cc2ccccc2)CC1` [Example 133], the IC50 was found to be 7.9 nM.

Staying with this data set, now noted: read-out: AChE inhibitory activity IC50.
For `COc1ccc2c(c1)C(=O)N(CCC1CCN(Cc3ccccc3)CC1)C2=O` [Example 54], the IC50 amounted to 8 nM.

The test system of another data set is ddY male mouse. Kind of data set: Acute Toxicity Test for ddY Male Mouse. The conditions noted are these: oral to mouse, 100 mg (mg/kg), ddY male mice. The class given is in vivo. On the procedure:
Acute Toxicity Test for ddY Male Mouse
Acute toxicity test was carried out using ddY male mice.
On to `CN(CCC1CCN(Cc2ccccc2)CC1)C(=O)c1ccc(S(=O)(=O)Cc2ccccc2)cc1` [Example 4, N-methyl-N-[4'-(1'-benzylpiperidine)ethyl]-4-benzylsulfonylbenzamide, hydrochloride], for which the “number of deaths / number of animals used, 100 mg” value was 0/3.
On to `CN(CCC1CCN(Cc2ccccc2)CC1)C(=O)c1ccncc1` [Example 5, N-methyl-N-[4'-(1'-benzylpiperidyl)ethyl] isonicotinic acid amide hydrochloride], for which the “number of deaths / number of animals used, 100 mg” value was 1/4.
Still for that read-out and setting: the value for `O=c1[nH]c2ccccc2c(=O)n1CCC1CCN(Cc2ccccc2)CC1` [Example 10, 3-[2-(1-benzyl-4-piperidino)ethyl]-2,4-(1H,3H)-quinazolidione.hydrochloride] was 3/4.

Still in this data set, the particulars now being: oral to mouse, 300 mg (mg/kg), ddY male mice.
Consider `CN(CCC1CCN(Cc2ccccc2)CC1)C(=O)c1ccc(S(=O)(=O)Cc2ccccc2)cc1` [Example 4, N-methyl-N-[4'-(1'-benzylpiperidine)ethyl]-4-benzylsulfonylbenzamide, hydrochloride], for which the “number of deaths / number of animals used, 300 mg” value (from here on “number of deaths / number … 300 mg”) was 2/4.
`CN(CCC1CCN(Cc2ccccc2)CC1)C(=O)c1ccncc1` [Example 5, N-methyl-N-[4'-(1'-benzylpiperidyl)ethyl] isonicotinic acid amide hydrochloride]: the “number of deaths / number … 300 mg” value is given as 4/4.
For `O=C1c2ccc([N+](=O)[O-])cc2C(=O)N1CCC1CCN(Cc2ccccc2)CC1` [Example 7, N-[2-(N'-benzylpiperidino-4)ethyl]-4-nitrophthalimide.hydrochloride], the “number of deaths / number … 300 mg” value is reported as 0/3.
